Values joined by “and” are separate entries in the source; they are usually repeats but may differ in a detail not shown here. Equal values may be shown once. Read-outs that look alike come from different tables or passages of the source.
Columns and labels:
[1] = test system: PA14 nfxB (T39P) and mexS (L46F) mutants; assay: Pyocyanin production; type: cell-based, Pseudomonas aeruginosa; details: for Pyocyanin production (Panel E): single replicates
Description: […] Cell-free supernatants were […] by centrifugation, and 100 μl were added to a 96-well plate in duplicate. The integrated absorbance spectrum from 306 to 326 nm was taken in a Tecan InfiniteM200 Pro plate reader to determine pyocyanin levels in each sample. A ΔpqsA sample was used to subtract out any background values, and pyocyanin levels were normalized by the ratio of OD600 between wildtype PA14 and the mutants to account for any slight differences in growth.

[2] = test system: sheep red blood cells; assay: Haemolysis; type: cell-based; details: 1 h, vs Triton X-100 100% lysis
Description: Samples were treated at 37 °C with shaking for 1 h and then centrifuged. Supernatants were collected and absorbances were measured at 405 nm in a Tecan InfiniteM200 Pro microplate reader.

[3] = test system: P. aeruginosa clinical isolates; type: cell-based, Pseudomonas aeruginosa; details: for clinical isolates resistant: 77 P. aeruginosa clinical isolates (55 CDC/FDA, 22 blood), 50 μg ml^−1, growth inhibition >80% = sensitive; for % Growth: 50ug/mL
Description: Percent growth was calculated by dividing the OD600 of fluorofolin antibiotic-treated wells by that of vehicle-only wells.

[4] = test system: P. aeruginosa PA14; assay: Colony-forming units counting after antibiotic treatment; type: cell-based, Pseudomonas aeruginosa; details: 2× MIC (fluorofolin 6.2, TMP 250, polymixin B 4 μg ml^−1)
Description: P. aeruginosa PA14 overnight cultures were diluted 1:100 and grown to exponential phase (OD600 = 0.4–0.6). Cultures were diluted 1:10 and treated with antibiotic. At each time point, 150 μl of culture was removed, serial diluted 1:10 six times and plated onto LB agar plates. Plates were grown overnight at 37 °C, after which visible colonies were counted. C.f.u.s ml^−1 are reported from dilutions in which ~10–100 single colonies were visible.

CCCCCCCc1[nH]c2ccccc2c(=O)c1O [PQS, Pseudomonas quinolone signal]
Pyocyanin production (Panel E) ([1]; PA14, + 1 uM PQS): 15.8282 and 16.194 and 15.1165
pyocyanin production of nfxB and mexS mutants ([1]; PQS 1 μM added at inoculation): partially rescued
Pyocyanin production (Panel E) ([1]; PqsA KO, + 1 uM PQS): 17.5069 and 16.392 and 16.1857
Pyocyanin production (Panel E) ([1]; mexS Mutant, + 1 uM PQS): 10.0838 and 9.877 and 13.1798
Pyocyanin production (Panel E) ([1]; nfxB mutant, + 1 uM PQS): 8.219 and 6.016 and 7.118

CC(C)c1ccc(Cn2ccc3c4c(N)nc(NC5CC5)nc4ccc32)cc1 [SCH-79797]
% Hemolysis, Mean ([2]; 0.78125 ug/mL): 0.2789%
% Hemolysis, Mean ([2]; 1.5625 ug/mL): -0.7082%
% Hemolysis, Mean ([2]; 3.125 ug/mL): -0.9423%
% Hemolysis, Mean ([2]; 6.25 ug/mL): 0.9543%
% Hemolysis, Mean ([2]; 12.5 ug/mL): 20.9447%
% Hemolysis, Mean ([2]; 25 ug/mL): 53.6334%
% Hemolysis, Mean ([2]; 50 ug/mL): 64.7041%

C[C@@H](O)[C@H]1C(=O)N2C(C(=O)O)=C(S[C@@H]3CN[C@H](C(=O)N(C)C)C3)[C@H](C)[C@H]12 [meropenem]
clinical isolates resistant [3]: 74.0%
% Growth ([3]; Isolate# 1): 113.227%
% Growth ([3]; Isolate# 2): 104.859%
% Growth ([3]; Isolate# 3): 93.4328%
% Growth ([3]; Isolate# 4): 45.5006%
% Growth ([3]; Isolate# 5): 93.4656%
% Growth ([3]; Isolate# 6): 77.5947%
% Growth ([3]; Isolate# 7): 101.901%
% Growth ([3]; Isolate# 8): 45.9194%
% Growth ([3]; Isolate# 9): 53.5808%
% Growth ([3]; Isolate# 10): 5.367%
% Growth ([3]; Isolate# 11): 99.5105%
% Growth ([3]; Isolate# 12): 98.7175%
% Growth ([3]; Isolate# 13): 37.9571%
% Growth ([3]; Isolate# 14): 104.583%
% Growth ([3]; Isolate# 15): 111.823%
% Growth ([3]; Isolate# 16): 82.8716%
% Growth ([3]; Isolate# 17): 101.338%
% Growth ([3]; Isolate# 18): 69.0131%
% Growth ([3]; Isolate# 19): 139.474%
% Growth ([3]; Isolate# 20): 102.365%
% Growth ([3]; Isolate# 21): 105.977%
% Growth ([3]; Isolate# 22): 100%
% Growth ([3]; Isolate# 23): 99.084%
% Growth ([3]; Isolate# 24): 101.66%
% Growth ([3]; Isolate# 25): 0.3832%
% Growth ([3]; Isolate# 26): 108.084%
% Growth ([3]; Isolate# 27): 90.2732%
% Growth ([3]; Isolate# 28): 50.4713%
% Growth ([3]; Isolate# 29): 81.8075%
% Growth ([3]; Isolate# 30): 25.5041%
% Growth ([3]; Isolate# 31): 2.581%
% Growth ([3]; Isolate# 32): 49.1417%
% Growth ([3]; Isolate# 33): 0%
% Growth ([3]; Isolate# 34): 7.796%
% Growth ([3]; Isolate# 35): 0.5421%
% Growth ([3]; Isolate# 36): 34.6796%
% Growth ([3]; Isolate# 37): 97.561%
% Growth ([3]; Isolate# 38): 159.815%
% Growth ([3]; Isolate# 39): 38.9532%
% Growth ([3]; Isolate# 40): 99.0807%
% Growth ([3]; Isolate# 41): 94.6179%
% Growth ([3]; Isolate# 42): 57.1194%
% Growth ([3]; Isolate# 43): 47.1218%
% Growth ([3]; Isolate# 44): 108.201%
% Growth ([3]; Isolate# 45): 95.4718%
% Growth ([3]; Isolate# 46): 98.3594%
% Growth ([3]; Isolate# 47): 114.345%
% Growth ([3]; Isolate# 48): 88.9096%
% Growth ([3]; Isolate# 49): 96.2021%
% Growth ([3]; Isolate# 50): 122.491%
% Growth ([3]; Isolate# 51): 46.991%
% Growth ([3]; Isolate# 52): 2.293%
% Growth ([3]; Isolate# 53): 3.543%
% Growth ([3]; Isolate# 54): 4.738%
% Growth ([3]; Isolate# 55): 0%
% Growth ([3]; Isolate# 56): 121.285%
% Growth ([3]; Isolate# 57): 61.1775%
% Growth ([3]; Isolate# 58): 74.7799%
% Growth ([3]; Isolate# 59): 114.529%
% Growth ([3]; Isolate# 60): 144.06%
% Growth ([3]; Isolate# 61): 63.8412%
% Growth ([3]; Isolate# 62): 95.6203%
% Growth ([3]; Isolate# 63): 0%
% Growth ([3]; Isolate# 64): 0.5899%
% Growth ([3]; Isolate# 65): 0.9518%
% Growth ([3]; Isolate# 66): 19.8024%
% Growth ([3]; Isolate# 67): 10.308%
% Growth ([3]; Isolate# 68): 0.6936%
% Growth ([3]; Isolate# 69): 5.952%
% Growth ([3]; Isolate# 70): 25.3374%
% Growth ([3]; Isolate# 71): 98.2336%
% Growth ([3]; Isolate# 72): 90.6634%
% Growth ([3]; Isolate# 73): 0%
% Growth ([3]; Isolate# 74): 128.066%
% Growth ([3]; Isolate# 75): 2.406%
% Growth ([3]; Isolate# 76): 11.0259%
% Growth ([3]; Isolate# 77): 28.4071%

gentamycin
clinical isolates resistant [3]: 35.0%
% Growth ([3]; Isolate# 1): 0.6518%
% Growth ([3]; Isolate# 2): 105.422%
% Growth ([3]; Isolate# 3): 61.3464%
% Growth ([3]; Isolate# 4): 179.172%
% Growth ([3]; Isolate# 5): 0%
% Growth ([3]; Isolate# 6): 89.7261%
% Growth ([3]; Isolate# 7): 110.349%
% Growth ([3]; Isolate# 8): 97.3307%
% Growth ([3]; Isolate# 9): 0%
% Growth ([3]; Isolate# 10): 0%
% Growth ([3]; Isolate# 11): 111.492%
% Growth ([3]; Isolate# 12): 30.6669%
% Growth ([3]; Isolate# 13): 9.611%
% Growth ([3]; Isolate# 14): 99.0331%
% Growth ([3]; Isolate# 15): 99.6274%
% Growth ([3]; Isolate# 16): 86.3373%
% Growth ([3]; Isolate# 17): 0.5763%
% Growth ([3]; Isolate# 18): 84.8111%
% Growth ([3]; Isolate# 19): 0%
% Growth ([3]; Isolate# 20): 92.394%
% Growth ([3]; Isolate# 21): 106.701%
% Growth ([3]; Isolate# 22): 98.4485%
% Growth ([3]; Isolate# 23): 0%
% Growth ([3]; Isolate# 24): 0%
% Growth ([3]; Isolate# 25): 0%
% Growth ([3]; Isolate# 26): 111.123%
% Growth ([3]; Isolate# 27): 88.2969%
% Growth ([3]; Isolate# 28): 0%
% Growth ([3]; Isolate# 29): 0%
% Growth ([3]; Isolate# 30): 1.897%
% Growth ([3]; Isolate# 31): 0%
% Growth ([3]; Isolate# 32): 104.806%
% Growth ([3]; Isolate# 33): 0%
% Growth ([3]; Isolate# 34): 0%
% Growth ([3]; Isolate# 35): 0%
% Growth ([3]; Isolate# 36): 0%
% Growth ([3]; Isolate# 37): 95.3633%
% Growth ([3]; Isolate# 38): 100.4%
% Growth ([3]; Isolate# 39): 0%
% Growth ([3]; Isolate# 40): 0%
% Growth ([3]; Isolate# 41): 0%
% Growth ([3]; Isolate# 42): 0%
% Growth ([3]; Isolate# 43): 82.8316%
% Growth ([3]; Isolate# 44): 5.792%
% Growth ([3]; Isolate# 45): 88.2389%
% Growth ([3]; Isolate# 46): 13.0256%
% Growth ([3]; Isolate# 47): 70.0551%
% Growth ([3]; Isolate# 48): 0%
% Growth ([3]; Isolate# 49): 0%
% Growth ([3]; Isolate# 50): 2.976%
% Growth ([3]; Isolate# 51): 0%
% Growth ([3]; Isolate# 52): 0%
% Growth ([3]; Isolate# 53): 0%
% Growth ([3]; Isolate# 54): 0.0248%
% Growth ([3]; Isolate# 55): 142.857%
% Growth ([3]; Isolate# 56): 0%
% Growth ([3]; Isolate# 57): 61.626%
% Growth ([3]; Isolate# 58): 0.9683%
% Growth ([3]; Isolate# 59): 34.5167%
% Growth ([3]; Isolate# 60): 0%
% Growth ([3]; Isolate# 61): 0%
% Growth ([3]; Isolate# 62): 0%
% Growth ([3]; Isolate# 63): 0%
% Growth ([3]; Isolate# 64): 0%
% Growth ([3]; Isolate# 65): 0%
% Growth ([3]; Isolate# 66): 0%
% Growth ([3]; Isolate# 67): 0%
% Growth ([3]; Isolate# 68): 0%
% Growth ([3]; Isolate# 69): 0.2922%
% Growth ([3]; Isolate# 70): 0%
% Growth ([3]; Isolate# 71): 0%
% Growth ([3]; Isolate# 72): 106.187%
% Growth ([3]; Isolate# 73): 0%
% Growth ([3]; Isolate# 74): 0%
% Growth ([3]; Isolate# 75): 0%
% Growth ([3]; Isolate# 76): 0.1836%
% Growth ([3]; Isolate# 77): 1.314%

polymixin B
PA14 CFU/mL, Mean ([4]; Time 0 h): 197000 CFU/mL
PA14 CFU/mL, Mean ([4]; Time 1 h): 81.6667 CFU/mL
PA14 CFU/mL, Mean ([4]; Time 2 h): 17.7778 CFU/mL
PA14 CFU/mL, Mean ([4]; Time 4 h): 20 CFU/mL
